Results on 16 molecules are retold here after PubChem BioAssay (NCI).

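Cultured in 96-well plates, cells were exposed to test compound for 48 hours across five concentrations. The concentration for 50% growth inhibition is given as GI50. The concentration for full growth arrest is given as TGI.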 Some results are limits rather than exact numbers.

What all share (test): DTP human tumour cell line panel, 48 h
For test [1], the system named is CAKI-1 renal.
The subject of test [2] is COLO 205 colon.
Test [3] relates to KM12 colon.
The test system of test [4] is M14 melanoma.
Test [5] has as its system SF-295 CNS.
The subject of test [6] is SNB-75 CNS.
For test [7], the system named is TK-10 renal.
The subject of test [8] is UACC-257 melanoma.
In test [9] the test system is DU-145 prostate.

Consider `C[CH2][Ge]([CH2]C)([CH2]C)[O]C(=O)C(OC(C)=O)c1ccccc1` (configuration not stated), for which the GI50 in test [1], in [2], in [3], in test [4], in test [5] and in test [6] was greater than 100 µM throughout. Further, the GI50 in test [7] and in [8] was greater than 100 µM each time. Further, the TGI in [1], in [2], in [3], in [4], in test [5] and in [6] was greater than 100 µM each time. Further, the concentration for total growth inhibition (TGI) in [7] and in test [8] was greater than 100 µM throughout.

On to `COc1ccc2c3c([nH]c2c1[N+](=O)[O-])C(C)N(Cc1ccccc1)CC3` (configuration not stated), for which the TGI in [1] is greater than 100 µM; in test [2], greater than 100 µM; in test [3], greater than 100 µM; in test [4], 28.1 µM; in [7] it was greater than 100 µM; in test [8], 14.5 µM.

Take `O=C1C=CC=C/C1=C1/SC(c2ccccc2)=C(O)N1c1ccccc1`: the TGI in test [1], in [2], in [3], in [5], in test [6] and in test [7] was greater than 100 µM each time. This molecule returned a TGI in test [8] greater than 100 µM.

On to `Cc1cccc(C2SCc3nc4ccccc4n32)c1` (configuration not stated), for which the concentration for total growth inhibition (TGI) is greater than 100 µM in test [1]; 79.8 µM in test [3]; greater than 100 µM in test [4]; greater than 100 µM in test [5]; 20.7 µM in test [6]; 56.8 µM in test [7].

Take `CCOC(=O)/C(=C/c1ccc(C(=O)OC)cc1)N(CC)CC`: the TGI in test [1], in test [2], in [3], in test [4], in [7] and in test [8] was greater than 100 µM each time.

As to `CC1/C(=N\O)CC(c2ccccc2)N(C)C1c1ccccc1` (configuration not stated), the TGI in test [1], in test [2], in test [3], in [4], in test [5] and in [6] was greater than 100 µM in each case. Besides, the TGI in test [7] and in [8] was greater than 100 µM in each case.

For the molecule `ClC/C=C/COC1CCCCO1` (configuration not stated), the TGI in [1], in [2], in [3], in test [4], in [5] and in test [6] was greater than 100 µM each time. The TGI in test [7] and in test [8] was greater than 100 µM each time.

In the case of `CC1=C(/C=C/C(C)=C/C2CC(N(C)C)=CC(=O)O2)C(C)(C)CCC1` (configuration not stated), the TGI in test [1] was found to be 37.1 µM; in test [2], 27.2 µM; in [3] it was 31.2 µM; in [4], 28.3 µM; in test [5], 26.1 µM; in test [6], 32.4 µM. Further, the TGI in [7] turned out to be 27.5 µM; in test [8] it was 24.9 µM.

Take `COC(=O)c1ccc(CN2C(=O)C(Cl)=C(Nc3cccc(Cl)c3C)C2=O)cc1`: the GI50 is 26.5 µM in test [1]; 19.7 µM in test [2]; 29.1 µM in test [9]; 4.03 µM in [3]; 4.01 µM in [4]; 35.4 µM in test [5]. The GI50 was 14.8 µM in test [6], 47.8 µM in test [7] and 45.6 µM in [8]. The TGI is 71.6 µM in [1]; greater than 100 µM in [2]; greater than 100 µM in test [9]; greater than 100 µM in [3]; greater than 100 µM in [4]; greater than 100 µM in test [5]. Also, the figures for the TGI in test [6], in test [7] and in [8] were 95 µM, greater than 100 µM and greater than 100 µM, respectively.

Take `O=C1N2Cc3c4ccc5c3CN3C(=O)N6Cc7c(ccc(c7CN1C6(c1ccccc1)C23c1ccccc1)OCCOCCNCCOCCO4)OCCOCCNCCOCCO5` (configuration not stated): the total growth inhibition concentration (TGI) in test [1] was greater than 100 µM; in test [3], greater than 100 µM; in test [4], 57.8 µM; in [5], greater than 100 µM; in test [6] it was greater than 100 µM; in test [7] it was 56 µM. For the same molecule, in test [8], the TGI came out at 69 µM.

Take `Cc1cccc(C)c1NC(=O)C1=NC(=S)NC(c2ccccc2)C1c1nc2ccccc2s1` (configuration not stated): the TGI in test [1], in [2], in [3], in test [4], in test [5] and in [6] was greater than 100 µM in each case. The TGI in test [7] and in [8] was greater than 100 µM in each case.

For `COC(=O)C1Cc2c(n(C)c3ccccc23)C(CCC(=O)O)N1Cc1ccccc1` (configuration not stated), the TGI was greater than 100 µM in test [1]; 71.9 µM in test [2]; 81.4 µM in test [3]; 62.2 µM in [4]; 93.9 µM in test [5]; 89.7 µM in test [6]. Moreover, the TGI in [7] and in test [8] was greater than 100 µM throughout.

As to `O=C1CC(c2ccccc2)=Nc2ccccc2N1`, the TGI in [1], in [2], in test [3], in test [4], in test [5] and in test [6] was greater than 100 µM in each case. Besides, the TGI in test [7] and in test [8] was greater than 100 µM in each case.

On to `CC(=O)Nc1c(Nc2ccccc2)[nH]c(C)nc1=S`, for which the TGI in test [1], in test [2], in test [3], in [4], in [5] and in test [6] was greater than 100 µM throughout. Further, the TGI in test [7] and in test [8] was greater than 100 µM each time.

For the molecule `c1ccc2c3c([nH]c2c1)[C@H]1C2CCCCN2CN1CC3` (some centres not stated), the TGI in [1], in test [2], in test [4], in test [5], in test [6] and in [7] was greater than 100 µM each time. Moreover, in test [8], the TGI is greater than 100 µM.

With `O=c1[nH]c2ccccc2nc1/C=C(\O)c1ccccc1O`, the TGI in [1], in test [2], in [3], in test [4], in [5] and in test [6] was greater than 100 µM throughout. In addition, the total growth inhibition concentration (TGI) in test [7] and in test [8] was greater than 100 µM in each case.
